Columns and labels:
Experiment in all cases: KinaseProfiler
Type in all cases: biochemical
Settings in all cases: 10 μM, ATP near Km
[1] = biological target: T1, Ab12 (Homo sapiens, UniProt P42684)
T1 construct: purchased Millipore (KinaseProfiler service)
Procedure, shortened: (§1)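 10 μM compound, n=2; ATP ~Km per kinase. Readout: POC, mean of duplicates.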

[2] = biological target: T2, Bmx (Homo sapiens, UniProt P51813)
T2 construct: purchased Millipore (KinaseProfiler service)
Procedure, shortened: as §1

[3] = biological target: T3, CAMK2d (Homo sapiens, UniProt Q13557)
T3 construct: purchased Millipore (KinaseProfiler service)
T3 sequence (Q13557 whole entry): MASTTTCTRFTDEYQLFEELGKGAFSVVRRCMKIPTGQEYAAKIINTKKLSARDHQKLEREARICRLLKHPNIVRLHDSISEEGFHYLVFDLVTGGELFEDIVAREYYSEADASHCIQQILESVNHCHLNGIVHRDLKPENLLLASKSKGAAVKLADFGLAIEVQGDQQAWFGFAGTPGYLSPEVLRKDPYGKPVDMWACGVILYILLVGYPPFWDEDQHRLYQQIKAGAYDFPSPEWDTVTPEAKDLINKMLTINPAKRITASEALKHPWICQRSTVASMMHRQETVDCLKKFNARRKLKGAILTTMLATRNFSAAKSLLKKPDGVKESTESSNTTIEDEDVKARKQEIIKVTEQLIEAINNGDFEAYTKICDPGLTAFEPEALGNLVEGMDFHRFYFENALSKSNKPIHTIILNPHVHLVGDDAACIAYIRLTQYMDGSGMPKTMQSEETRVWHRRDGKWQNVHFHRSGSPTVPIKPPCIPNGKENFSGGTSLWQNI
Procedure, shortened: as §1

[4] = biological target: T4, CDK3/cyclinE (Homo sapiens, UniProt Q00526)
T4 construct: purchased Millipore, Inc. (KinaseProfiler service)
T4 sequence (Q00526 whole entry): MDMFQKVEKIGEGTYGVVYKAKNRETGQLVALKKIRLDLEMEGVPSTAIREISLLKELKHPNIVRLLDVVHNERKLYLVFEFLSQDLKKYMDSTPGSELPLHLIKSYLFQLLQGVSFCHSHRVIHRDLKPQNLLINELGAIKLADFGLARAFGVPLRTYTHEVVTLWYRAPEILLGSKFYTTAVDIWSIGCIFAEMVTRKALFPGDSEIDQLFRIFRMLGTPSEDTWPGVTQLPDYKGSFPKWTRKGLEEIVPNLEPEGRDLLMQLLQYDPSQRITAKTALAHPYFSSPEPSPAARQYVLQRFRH
T4 sequence (P24864 whole entry partner): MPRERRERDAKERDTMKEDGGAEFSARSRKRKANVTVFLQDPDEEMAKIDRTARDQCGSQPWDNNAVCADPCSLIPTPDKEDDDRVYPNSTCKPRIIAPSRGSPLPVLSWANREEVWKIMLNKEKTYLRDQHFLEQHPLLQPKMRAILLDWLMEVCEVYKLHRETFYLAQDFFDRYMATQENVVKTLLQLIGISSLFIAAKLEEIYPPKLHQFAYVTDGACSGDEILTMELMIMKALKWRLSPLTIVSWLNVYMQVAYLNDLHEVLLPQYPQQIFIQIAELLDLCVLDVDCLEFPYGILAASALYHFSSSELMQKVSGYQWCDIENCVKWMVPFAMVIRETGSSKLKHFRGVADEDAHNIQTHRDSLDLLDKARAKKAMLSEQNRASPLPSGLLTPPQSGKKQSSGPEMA
Procedure, shortened: as §1

[5] = biological target: T5, CDK6/cyclinD3 (Homo sapiens, UniProt Q00534)
T5 construct: purchased Millipore, Inc. (KinaseProfiler service)
Procedure, shortened: as §1

[6] = biological target: T6, CK1gamma2 (Homo sapiens, UniProt P78368)
T6 construct: purchased Millipore, Inc. (KinaseProfiler service)
Procedure, shortened: as §1

[7] = biological target: T7, CK2alpha2 (Homo sapiens, UniProt P19784)
T7 construct: purchased Millipore, Inc. (KinaseProfiler service)
T7 sequence (P19784 whole entry): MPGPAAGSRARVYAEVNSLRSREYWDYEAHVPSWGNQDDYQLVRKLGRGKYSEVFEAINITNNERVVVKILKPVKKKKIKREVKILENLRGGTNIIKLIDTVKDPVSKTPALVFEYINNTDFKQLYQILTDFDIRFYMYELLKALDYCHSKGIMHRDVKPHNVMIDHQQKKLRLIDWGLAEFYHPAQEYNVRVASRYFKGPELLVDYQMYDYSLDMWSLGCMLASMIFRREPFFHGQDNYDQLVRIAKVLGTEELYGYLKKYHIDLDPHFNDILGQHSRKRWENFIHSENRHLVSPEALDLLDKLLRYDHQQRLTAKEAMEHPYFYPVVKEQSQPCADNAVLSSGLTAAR
Procedure, shortened: as §1

[8] = biological target: T8, CSK (Homo sapiens, UniProt P41240)
T8 construct: purchased Millipore, Inc. (KinaseProfiler service)
Procedure, shortened: as §1

[9] = biological target: T9, DCAMKL2 (Homo sapiens, UniProt Q8N568)
T9 construct: purchased Millipore, Inc. (KinaseProfiler service)
Procedure, shortened: as §1

[10] = biological target: T10, EphB2 (Homo sapiens, UniProt P29323)
T10 construct: purchased Millipore, Inc. (KinaseProfiler service)
Procedure, shortened: as §1

[11] = biological target: T11, FGFR3 (Homo sapiens, UniProt P22607)
T11 construct: purchased Millipore, Inc. (KinaseProfiler service)
Procedure, shortened: as §1

[12] = biological target: T12, Fgr (Homo sapiens, UniProt P09769)
T12 construct: purchased Millipore, Inc. (KinaseProfiler service)
Procedure, shortened: as §1

[13] = biological target: T13, Fyn (Homo sapiens, UniProt P06241)
T13 construct: purchased Millipore, Inc. (KinaseProfiler service)
Procedure, shortened: as §1

[14] = biological target: T14, GRK5 (Homo sapiens, UniProt P34947)
T14 construct: purchased Millipore, Inc. (KinaseProfiler service)
Procedure, shortened: as §1

[15] = biological target: T15, GSK3alpha (Homo sapiens, UniProt P49840)
T15 construct: purchased Millipore, Inc. (KinaseProfiler service)
Procedure, shortened: as §1

[16] = biological target: T16, HIPK1 (Homo sapiens, UniProt Q86Z02)
T16 construct: purchased Millipore, Inc. (KinaseProfiler service)
Procedure, shortened: as §1

[17] = biological target: T17, HIPK3 (Homo sapiens, UniProt Q9H422)
T17 construct: purchased Millipore, Inc. (KinaseProfiler service)
T17 sequence (Q9H422 whole entry): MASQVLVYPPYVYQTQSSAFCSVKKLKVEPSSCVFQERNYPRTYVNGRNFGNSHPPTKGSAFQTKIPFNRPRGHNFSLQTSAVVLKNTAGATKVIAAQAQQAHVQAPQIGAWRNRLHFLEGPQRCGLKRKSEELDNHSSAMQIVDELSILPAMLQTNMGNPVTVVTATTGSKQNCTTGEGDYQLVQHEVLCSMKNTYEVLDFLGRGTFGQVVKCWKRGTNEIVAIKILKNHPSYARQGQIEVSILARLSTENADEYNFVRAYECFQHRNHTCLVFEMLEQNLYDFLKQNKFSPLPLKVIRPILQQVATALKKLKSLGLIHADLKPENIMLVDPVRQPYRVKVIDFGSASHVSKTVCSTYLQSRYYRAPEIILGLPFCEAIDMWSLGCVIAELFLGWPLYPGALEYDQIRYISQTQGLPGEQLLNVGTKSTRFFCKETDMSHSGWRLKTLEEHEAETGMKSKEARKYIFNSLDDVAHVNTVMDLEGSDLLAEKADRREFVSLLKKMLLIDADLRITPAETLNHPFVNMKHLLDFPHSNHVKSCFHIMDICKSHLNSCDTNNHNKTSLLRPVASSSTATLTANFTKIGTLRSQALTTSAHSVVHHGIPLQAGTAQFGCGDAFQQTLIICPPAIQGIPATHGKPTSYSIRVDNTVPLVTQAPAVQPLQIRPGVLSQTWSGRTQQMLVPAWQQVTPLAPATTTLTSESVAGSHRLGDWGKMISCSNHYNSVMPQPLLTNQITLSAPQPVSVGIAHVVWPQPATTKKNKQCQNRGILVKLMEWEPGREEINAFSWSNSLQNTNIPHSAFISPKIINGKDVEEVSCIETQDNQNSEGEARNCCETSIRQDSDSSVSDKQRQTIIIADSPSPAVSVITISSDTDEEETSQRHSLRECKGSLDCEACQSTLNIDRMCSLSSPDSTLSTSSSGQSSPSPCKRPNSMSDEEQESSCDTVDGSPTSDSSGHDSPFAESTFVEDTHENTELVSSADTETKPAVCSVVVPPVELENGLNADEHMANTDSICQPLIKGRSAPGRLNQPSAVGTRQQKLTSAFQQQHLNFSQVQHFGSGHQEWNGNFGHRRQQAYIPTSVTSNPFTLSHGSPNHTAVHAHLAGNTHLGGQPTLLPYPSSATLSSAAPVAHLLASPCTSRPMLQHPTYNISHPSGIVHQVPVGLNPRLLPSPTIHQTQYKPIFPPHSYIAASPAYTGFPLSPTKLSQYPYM
Procedure, shortened: as §1

[18] = biological target: T18, IGF-1R (Homo sapiens, UniProt P08069)
T18 construct: purchased Millipore, Inc. (KinaseProfiler service)
Procedure, shortened: as §1

[19] = biological target: T19, IKKbeta (Homo sapiens, UniProt O14920)
T19 construct: purchased Millipore, Inc. (KinaseProfiler service)
T19 sequence (O14920 whole entry): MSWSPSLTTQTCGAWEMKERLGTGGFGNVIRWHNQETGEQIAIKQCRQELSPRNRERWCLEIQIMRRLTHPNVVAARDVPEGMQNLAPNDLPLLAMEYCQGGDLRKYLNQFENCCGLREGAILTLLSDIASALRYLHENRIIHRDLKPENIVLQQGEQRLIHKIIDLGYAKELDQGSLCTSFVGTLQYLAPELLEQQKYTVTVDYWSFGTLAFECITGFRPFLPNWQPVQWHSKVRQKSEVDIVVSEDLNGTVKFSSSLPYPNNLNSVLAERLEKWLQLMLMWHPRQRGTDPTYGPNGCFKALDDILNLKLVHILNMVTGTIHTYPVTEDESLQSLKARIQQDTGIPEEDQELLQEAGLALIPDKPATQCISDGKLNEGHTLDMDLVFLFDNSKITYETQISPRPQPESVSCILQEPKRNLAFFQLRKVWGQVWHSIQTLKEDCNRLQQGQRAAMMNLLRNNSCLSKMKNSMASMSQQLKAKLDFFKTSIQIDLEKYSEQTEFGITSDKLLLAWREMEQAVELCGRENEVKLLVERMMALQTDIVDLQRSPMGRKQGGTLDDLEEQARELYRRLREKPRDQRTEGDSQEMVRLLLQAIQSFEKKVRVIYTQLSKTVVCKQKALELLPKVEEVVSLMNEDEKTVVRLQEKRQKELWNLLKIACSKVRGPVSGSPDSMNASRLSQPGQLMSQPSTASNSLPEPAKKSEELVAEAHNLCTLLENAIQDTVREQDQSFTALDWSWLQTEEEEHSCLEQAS
Procedure, shortened: as §1

[20] = biological target: T20, ITK (Homo sapiens, UniProt Q08881)
T20 construct: purchased Millipore, Inc. (KinaseProfiler service)
Procedure, shortened: as §1

[21] = biological target: T21, JAK3 (Homo sapiens, UniProt P52333)
T21 construct: purchased Millipore, Inc. (KinaseProfiler service)
Procedure, shortened: as §1

[22] = biological target: T22, MARK1 (Homo sapiens, UniProt Q9P0L2)
T22 construct: purchased Millipore, Inc. (KinaseProfiler service)
Procedure, shortened: as §1

[23] = biological target: T23, MARK2 (Homo sapiens, UniProt Q7KZI7)
T23 construct: purchased Millipore, Inc. (KinaseProfiler service)
Procedure, shortened: as §1

[24] = biological target: T24, MICK4_m (Mus musculus, UniProt P47809)
T24 construct: purchased Millipore, Inc. (KinaseProfiler service)
Procedure, shortened: as §1

[25] = biological target: T25, MKK7beta (Homo sapiens, UniProt O14733)
T25 construct: purchased Millipore, Inc. (KinaseProfiler service)
Procedure, shortened: as §1

[26] = biological target: T26, MLK1 (Homo sapiens, UniProt P80192)
T26 construct: purchased Millipore, Inc. (KinaseProfiler service)
Procedure, shortened: as §1

[27] = biological target: T27, MYLK (Homo sapiens, UniProt Q15746)
T27 construct: purchased Millipore, Inc. (KinaseProfiler service)
Procedure, shortened: as §1

[28] = biological target: T28, MuSK (Homo sapiens, UniProt O15146)
T28 construct: purchased Millipore, Inc. (KinaseProfiler service)
Procedure, shortened: as §1

[29] = biological target: T29, NEK7 (Homo sapiens, UniProt Q8TDX7)
T29 construct: purchased Millipore, Inc. (KinaseProfiler service)
Procedure, shortened: as §1

[30] = biological target: T30, PKCalpha (Homo sapiens, UniProt P17252)
T30 construct: purchased Millipore, Inc. (KinaseProfiler service)
Procedure, shortened: as §1

[31] = biological target: T31, PKCeta (Homo sapiens, UniProt P24723)
T31 construct: purchased Millipore, Inc. (KinaseProfiler service)
Procedure, shortened: as §1

[32] = biological target: T32, PKD1 (Homo sapiens, UniProt Q15139)
T32 construct: purchased Millipore, Inc. (KinaseProfiler service)
Procedure, shortened: as §1

[33] = biological target: T33, Plk2 (Homo sapiens, UniProt Q9NYY3)
T33 construct: purchased Millipore, Inc. (KinaseProfiler service)
T33 sequence (Q9NYY3 whole entry): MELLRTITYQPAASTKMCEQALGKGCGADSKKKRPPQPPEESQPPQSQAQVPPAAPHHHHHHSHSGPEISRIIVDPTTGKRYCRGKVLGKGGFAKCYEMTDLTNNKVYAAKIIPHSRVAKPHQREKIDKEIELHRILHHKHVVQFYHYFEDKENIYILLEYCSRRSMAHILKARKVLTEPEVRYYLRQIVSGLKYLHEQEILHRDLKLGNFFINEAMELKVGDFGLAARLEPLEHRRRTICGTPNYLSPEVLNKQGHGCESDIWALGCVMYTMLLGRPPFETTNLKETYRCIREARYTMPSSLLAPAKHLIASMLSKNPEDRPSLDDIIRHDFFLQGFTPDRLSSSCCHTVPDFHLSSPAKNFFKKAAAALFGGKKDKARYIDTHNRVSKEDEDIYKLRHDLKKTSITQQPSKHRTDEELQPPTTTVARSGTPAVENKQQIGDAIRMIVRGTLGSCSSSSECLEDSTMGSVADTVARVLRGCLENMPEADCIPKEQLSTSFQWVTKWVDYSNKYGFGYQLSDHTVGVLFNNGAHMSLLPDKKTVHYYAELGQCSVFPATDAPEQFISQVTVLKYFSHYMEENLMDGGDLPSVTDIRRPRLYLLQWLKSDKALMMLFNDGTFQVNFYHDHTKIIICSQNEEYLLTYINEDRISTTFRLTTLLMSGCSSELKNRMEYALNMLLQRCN
Procedure, shortened: as §1

[34] = biological target: T34, Rse (Homo sapiens, UniProt Q06418)
T34 construct: purchased Millipore, Inc. (KinaseProfiler service)
Procedure, shortened: as §1

[35] = biological target: T35, Rsk3 (Homo sapiens, UniProt Q15349)
T35 construct: purchased Millipore, Inc. (KinaseProfiler service)
T35 sequence (Q15349 whole entry): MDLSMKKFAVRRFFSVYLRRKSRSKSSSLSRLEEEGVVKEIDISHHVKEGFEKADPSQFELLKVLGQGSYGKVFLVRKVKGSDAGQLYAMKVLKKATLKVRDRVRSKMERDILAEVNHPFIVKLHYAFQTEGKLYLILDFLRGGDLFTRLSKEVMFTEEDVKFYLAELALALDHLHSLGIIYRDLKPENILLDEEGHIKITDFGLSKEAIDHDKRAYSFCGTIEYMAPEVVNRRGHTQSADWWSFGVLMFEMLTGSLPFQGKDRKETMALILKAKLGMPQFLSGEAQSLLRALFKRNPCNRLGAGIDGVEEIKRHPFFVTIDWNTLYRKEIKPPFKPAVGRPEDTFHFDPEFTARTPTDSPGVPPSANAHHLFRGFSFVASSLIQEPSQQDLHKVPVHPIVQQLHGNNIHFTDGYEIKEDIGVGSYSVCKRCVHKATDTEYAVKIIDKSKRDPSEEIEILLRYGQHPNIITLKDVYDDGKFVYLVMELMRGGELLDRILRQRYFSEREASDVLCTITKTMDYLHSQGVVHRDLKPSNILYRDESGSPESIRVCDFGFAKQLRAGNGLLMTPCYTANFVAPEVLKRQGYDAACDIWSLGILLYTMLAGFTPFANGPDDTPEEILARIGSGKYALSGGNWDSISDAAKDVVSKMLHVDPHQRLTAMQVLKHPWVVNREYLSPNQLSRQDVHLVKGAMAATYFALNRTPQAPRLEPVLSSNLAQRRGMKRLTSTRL
Procedure, shortened: as §1

[36] = biological target: T36, Rsk4 (Homo sapiens, UniProt Q9UK32)
T36 construct: purchased Millipore, Inc. (KinaseProfiler service)
Procedure, shortened: as §1

[37] = biological target: T37, SGK1 (Homo sapiens, UniProt O00141)
T37 construct: purchased Millipore, Inc. (KinaseProfiler service)
Procedure, shortened: as §1

[38] = biological target: T38, SRPK2 (Homo sapiens, UniProt P78362)
T38 construct: purchased Millipore, Inc. (KinaseProfiler service)
Procedure, shortened: as §1

[39] = biological target: T39, TNK2 (Homo sapiens, UniProt Q07912)
T39 construct: purchased Millipore, Inc. (KinaseProfiler service)
Procedure, shortened: as §1

[40] = biological target: T40, TSSK2 (Homo sapiens, UniProt Q96PF2)
T40 construct: purchased Millipore, Inc. (KinaseProfiler service)
Procedure, shortened: as §1

[41] = biological target: T41, p38gamma (Homo sapiens, UniProt P53778)
T41 construct: purchased Millipore, Inc. (KinaseProfiler service)
Procedure, shortened: as §1

Avg POC [1]: 108 POC | Avg POC [2]: 129.5 POC | Avg POC [3]: 135.5 POC | Avg POC [4]: 101 POC | Avg POC [5]: 111 POC | Avg POC [6]: 120 POC | Avg POC [7]: 112.5 POC | Avg POC [8]: 139 POC | Avg POC [9]: 136 POC | Avg POC [10]: 112.5 POC | Avg POC [11]: 106.5 POC | Avg POC [12]: 118 POC | Avg POC [13]: 111.5 POC | Avg POC [14]: 90 POC | Avg POC [15]: 131 POC | Avg POC [16]: 118 POC | Avg POC [17]: 101 POC | Avg POC [18]: 85 POC | Avg POC [19]: 113.5 POC | Avg POC [20]: 125 POC | Avg POC [21]: 111 POC | Avg POC [22]: 107 POC | Avg POC [23]: 101.5 POC | Avg POC [24]: 137.5 POC | Avg POC [25]: 140 POC | Avg POC [26]: 110.5 POC | Avg POC [27]: 111.5 POC | Avg POC [28]: 100 POC | Avg POC [29]: 142 POC | Avg POC [30]: 104 POC | Avg POC [31]: 105.5 POC | Avg POC [32]: 113.5 POC | Avg POC [33]: 105 POC | Avg POC [34]: 109 POC | Avg POC [35]: 104 POC | Avg POC [36]: 105 POC | Avg POC [37]: 124 POC | Avg POC [38]: 113.5 POC | Avg POC [39]: 124 POC | Avg POC [40]: 114.5 POC | Avg POC [41]: 108 POC
SMILES: COCCCc1cc(Cl)c(Cl)cc1NC(=O)Nc1c(C)c(-c2cnn(C)c2)nn1-c1ccccc1 [Example 15, 1-(4,5-dichloro-2-(3-methoxypropyl)phenyl)-3-(1′,4-dimethyl-1-phenyl-1H,1′H-[3,4′-bipyrazol]-5-yl)urea]

— patent US9790210B2, “N-(monocyclic aryl),N'-pyrazolyl-urea, thiourea, guanidine and cyanoguanidine compounds as TrkA kinase inhibitors” (Array BioPharma Inc., priority 2012, dated 2017)
